Measurements taken from ChEMBL document CHEMBL3259698, “Reductions in log P improved protein binding and clearance predictions enabling the prospective design of cannabinoid receptor (CB1) antagonists with desired pharmacokinetic properties” (J Med Chem, 2013).
pIC50, pKi: −log10 of the molar value. Values after ≈ are worked out from the molar mass of the structure shown.

Legend:
[1] = target: Cannabinoid receptor 1 (Homo sapiens, UniProt P21554); experiment: Binding affinity to human CB1 receptor expressed in CHO cells by radioligand displacement based scintillation counting analysis; type: cell-based
Chain of Cannabinoid receptor 1 (P21554 whole entry): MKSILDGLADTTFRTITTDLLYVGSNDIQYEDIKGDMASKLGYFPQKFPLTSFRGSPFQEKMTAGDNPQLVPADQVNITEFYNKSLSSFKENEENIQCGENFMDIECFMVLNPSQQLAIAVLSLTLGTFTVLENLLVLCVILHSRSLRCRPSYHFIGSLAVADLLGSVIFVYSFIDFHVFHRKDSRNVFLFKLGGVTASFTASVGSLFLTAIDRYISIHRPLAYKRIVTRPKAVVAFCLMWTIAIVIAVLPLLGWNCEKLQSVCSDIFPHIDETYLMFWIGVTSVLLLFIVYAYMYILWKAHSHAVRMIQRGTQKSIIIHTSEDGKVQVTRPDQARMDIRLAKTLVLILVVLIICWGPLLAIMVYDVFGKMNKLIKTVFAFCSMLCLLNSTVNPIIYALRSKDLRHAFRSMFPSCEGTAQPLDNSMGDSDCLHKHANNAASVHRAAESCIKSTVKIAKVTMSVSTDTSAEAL

[2] = Lipophilicity, log P of the compound by HPLC analysis; type: physicochemical
[3] = target: Cytochrome P450 2C19 (Homo sapiens, UniProt P33261); experiment: Inhibition of human recombinant CYP2C19; type: ADME
Chain of Cytochrome P450 2C19 (P33261 whole entry): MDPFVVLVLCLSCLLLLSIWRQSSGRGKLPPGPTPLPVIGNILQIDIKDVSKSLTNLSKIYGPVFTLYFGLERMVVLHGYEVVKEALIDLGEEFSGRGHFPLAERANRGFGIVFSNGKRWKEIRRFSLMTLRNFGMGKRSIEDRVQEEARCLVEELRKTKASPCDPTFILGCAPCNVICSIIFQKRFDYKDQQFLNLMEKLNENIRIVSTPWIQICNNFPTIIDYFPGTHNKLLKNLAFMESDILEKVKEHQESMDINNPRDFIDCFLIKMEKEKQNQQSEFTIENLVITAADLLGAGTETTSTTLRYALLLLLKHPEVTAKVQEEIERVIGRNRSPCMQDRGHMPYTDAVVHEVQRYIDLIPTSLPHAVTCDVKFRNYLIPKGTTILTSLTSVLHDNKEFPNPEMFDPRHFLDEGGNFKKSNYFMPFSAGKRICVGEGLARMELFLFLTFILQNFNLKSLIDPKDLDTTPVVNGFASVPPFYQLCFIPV

[4] = target: Cytochrome P450 2C9 (Homo sapiens, UniProt P11712); experiment: Inhibition of human recombinant CYP2C9; type: ADME
Chain of Cytochrome P450 2C9 (P11712 whole entry): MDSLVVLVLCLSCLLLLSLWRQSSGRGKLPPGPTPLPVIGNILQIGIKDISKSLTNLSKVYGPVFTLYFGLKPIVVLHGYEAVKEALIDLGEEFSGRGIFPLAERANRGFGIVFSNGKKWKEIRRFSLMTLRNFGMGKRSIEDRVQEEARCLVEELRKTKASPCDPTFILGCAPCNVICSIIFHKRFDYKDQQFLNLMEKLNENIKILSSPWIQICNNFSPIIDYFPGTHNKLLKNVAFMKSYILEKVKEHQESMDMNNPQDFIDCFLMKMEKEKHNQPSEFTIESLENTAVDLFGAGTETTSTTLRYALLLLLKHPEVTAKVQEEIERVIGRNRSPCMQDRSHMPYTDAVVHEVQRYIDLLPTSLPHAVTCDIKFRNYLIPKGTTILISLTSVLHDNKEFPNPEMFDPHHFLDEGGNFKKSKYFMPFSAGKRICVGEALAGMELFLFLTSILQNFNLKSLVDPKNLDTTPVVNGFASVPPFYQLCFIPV

[5] = target: Cytochrome P450 3A4 (Homo sapiens, UniProt P08684); experiment: Inhibition of human recombinant CYP3A4
Chain of Cytochrome P450 3A4 (P08684 whole entry): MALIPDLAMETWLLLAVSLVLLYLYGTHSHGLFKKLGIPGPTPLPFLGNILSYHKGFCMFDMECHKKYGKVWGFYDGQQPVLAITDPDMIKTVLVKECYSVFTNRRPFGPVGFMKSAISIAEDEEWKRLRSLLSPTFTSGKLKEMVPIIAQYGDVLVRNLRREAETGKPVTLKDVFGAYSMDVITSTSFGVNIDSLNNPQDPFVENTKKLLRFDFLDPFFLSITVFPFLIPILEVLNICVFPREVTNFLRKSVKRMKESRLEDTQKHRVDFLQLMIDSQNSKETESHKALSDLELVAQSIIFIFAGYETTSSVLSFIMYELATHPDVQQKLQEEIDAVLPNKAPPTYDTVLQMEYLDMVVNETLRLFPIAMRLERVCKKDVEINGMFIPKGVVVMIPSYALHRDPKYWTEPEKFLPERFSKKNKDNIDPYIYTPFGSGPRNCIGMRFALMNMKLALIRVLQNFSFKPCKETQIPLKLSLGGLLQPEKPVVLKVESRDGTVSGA

[6] = Terminal half life in Sprague-Dawley rat at 3 mg/kg, iv; type: ADME, organism-based; set-up: dose 3 mg/kg, route intravenous; conditions: in vivo, read-out: beta t1/2 (converted)
[7] = Clearance in Sprague-Dawley rat at 3 mg/kg, iv; conditions: in vivo
[8] = test system: Rattus norvegicus; experiment: Reduction in food intake in nonfasted po dosed Sprague-Dawley rat measured for 8 hrs; type: functional; conditions: read-out: MED
[9] = test system: Rattus norvegicus; experiment: Reduction in food intake in nonfasted Sprague-Dawley rat at 3 mg/kg, po measured for 8 hrs; type: functional; set-up: scale not given: the % may be the effect or the level left
[10] = Elimination half life in iv dosed dog; type: ADME, organism-based, Canis lupus familiaris; conditions: in vivo, read-out: beta t1/2 (converted)
[11] = Elimination half life in iv dosed cynomolgus monkey; type: ADME, organism-based, Macaca fascicularis; conditions: in vivo, read-out: beta t1/2 (converted)
[12] = Fraction unbound in rat plasma at 10 uM by equilibrium dialysis method; type: ADME, cell-free
[13] = test system: Rattus norvegicus; experiment: Antiobesity activity in rat assessed as reduction in body weight at 10 mg/kg, qd after 4 days; type: functional; set-up: scale not given: the % may be the effect or the level left
[14] = test system: Rattus norvegicus; experiment: Antiobesity activity in diet-induced obese rat as reduction in body weight at 10 mg/kg, po after 28 days; type: functional; set-up: scale not given: the % may be the effect or the level left
[15] = Elimination half life in human; type: ADME, organism-based; conditions: in vivo, read-out: beta t1/2 (converted)
[16] = test system: Liver microsome; experiment: Clearance in rat liver microsomes at 1 to 3 uM after 20 mins by LC/MS/MS analysis
[17] = Aqueous solubility of the compound; type: physicochemical; conditions: buffer
[18] = Oral bioavailability in Sprague-Dawley rat; type: ADME, organism-based; conditions: in vivo
[19] = Oral bioavailability in dog; type: ADME, organism-based, Canis lupus familiaris; conditions: in vivo
[20] = Oral bioavailability in cynomolgus monkey; type: ADME, organism-based, Macaca fascicularis; conditions: in vivo
[21] = Fraction unbound in human plasma at 10 uM by equilibrium dialysis method; type: ADME, cell-free
[22] = Metabolic stability in rat hepatocytes assessed as compound remaining at 0.5 to 3 uM after 2 hrs by LC-MS/MS analysis; type: ADME, cell-based, Hepatocyte; conditions: read-out: Stability
[23] = test system: Rattus norvegicus; experiment: Drug excretion in bile duct-cannulated rat assessed as M + 2O-2H level at 5 mg/kg, po; type: ADME, organism-based; set-up: dose 5 mg/kg, route oral; conditions: in vivo
[24] = test system: Rattus norvegicus; experiment: Drug excretion in bile duct-cannulated rat assessed as M + O + glucuronide level at 5 mg/kg, po; type: ADME, organism-based; set-up: dose 5 mg/kg, route oral; conditions: in vivo
[25] = Drug excretion in bile duct-cannulated rat at 5 mg/kg, po; type: ADME, organism-based; set-up: dose 5 mg/kg, route oral; conditions: read-out: Drug excretion
[26] = Drug excretion in bile duct-cannulated rat bile assessed as M + 2O-2H and M + O + glucuronide level at 5 mg/kg, po after 48 hrs; type: ADME, organism-based; set-up: dose 5 mg/kg, route oral; conditions: in vivo
[27] = Drug excretion in bile duct-cannulated rat urine assessed as M + 2O-2H and M + O + glucuronide level at 5 mg/kg, po after 48 hrs; type: ADME, organism-based; set-up: dose 5 mg/kg, route oral; conditions: in vivo
[28] = Drug excretion in bile duct-cannulated rat bile at 5 mg/kg, po after 48 hrs; type: ADME, organism-based; set-up: dose 5 mg/kg, route oral; conditions: read-out: Drug excretion
[29] = test system: Rattus norvegicus; experiment: Antiobesity activity in rat assessed as reduction in body weight at 10 mg/kg after 4 days; type: functional; set-up: scale not given: the % may be the effect or the level left
[30] = test system: Rattus norvegicus; experiment: Antiobesity activity in rat assessed as reduction in body weight at 3 mg/kg after 4 days; type: functional; set-up: scale not given: the % may be the effect or the level left
[31] = test system: Rattus norvegicus; experiment: Antiobesity activity in diet-induced obese rat as reduction in body weight at 1 mg/kg, po after 28 days; type: functional; set-up: scale not given: the % may be the effect or the level left
[32] = test system: Rattus norvegicus; experiment: Antiobesity activity in diet-induced obese rat as reduction in body weight at 3 mg/kg, po after 28 days; type: functional; set-up: scale not given: the % may be the effect or the level left
[33] = test system: Rattus norvegicus; experiment: Reduction in food intake in nonfasted po dosed Sprague-Dawley rat measured for 20 hrs; type: functional; conditions: read-out: MED

| Structure (SMILES) | pKi [1] | logP [2] | pIC50 [3] | pIC50 [4] | pIC50 [5] | half-life [6] | further results |
| --- | --- | --- | --- | --- | --- | --- | --- |
| Cn1nc2c(-c3ccncc3)c(-c3ccc(Cl)cc3)c(=O)n(Cc3ccc(C#N)cc3)n2c1=O | 6.67 | – | – | – | – | – | – |
| CCn1nc2c(-c3ccc(Cl)cc3)c(-c3cnn(C)c3)c(=O)n(Cc3ccc(C#N)cc3)n2c1=O | 7.04 | 3.8 | < 4.40 | < 4.40 | 5.47 | – | – |
| Cc1nc(C(F)(F)F)ccc1Cn1c(=O)c(-c2ccncc2)c(-c2ccc(Cl)cc2)c2nn(C)c(=O)n21 | 8.05 | – | 6.15 | 5.54 | 5.17 | 198 min | clearance [7]: 6.3 mL/min/kg; minimal effective dose [8]: 3 mg/kg; Activity [9]: 33% |
| CCn1nc2c(-c3ccc(Cl)cc3)c(-c3ccc(C#N)cc3)c(=O)n(Cc3ccc(C#N)cc3)n2c1=O | 8.30 | 4.2 | – | – | – | – | half-life [10]: 2700 min; half-life [11]: 480 min; fraction unbound at 10 µM [12]: 0.01 |
| Cc1c(C(=O)NN2CCCCC2)nn(-c2ccc(Cl)cc2Cl)c1-c1ccc(Cl)cc1 [RIMONABANT] | – | – | – | – | – | – | Activity [13]: 5%; Activity [14]: 6.2%; half-life [15]: 9 days |
| Cc1nc(C(F)(F)F)ccc1Cn1c(=O)c(-c2ccc(C#N)cc2)c(-c2ccc(Cl)cc2)c2nn(C(C)C)c(=O)n21 | 8.72 | 5.2 | – | – | – | – | CLH [16]: 0.014 nmol/min/mg |
| CCn1nc2c(-c3ccc(Cl)cc3)c(-c3ccc(C#N)cc3)c(=O)n(Cc3ccc(C(F)(F)F)nc3C)n2c1=O | 8.85 | 4.6 | < 4.40 | < 4.40 | < 4.40 | 420 min | solubility [17]: 3 µg/mL (≈ 5.31 µM); half-life [10]: 4200 min; half-life [11]: 2400 min |
| CCn1nc2c(-c3ccc(Cl)cc3)c(-c3cnc(C)nc3)c(=O)n(Cc3ccc(C(F)(F)F)nc3C)n2c1=O | 8.33 | 3.8 | < 4.40 | < 4.40 | < 4.40 | 300 min | solubility [17]: 17 µg/mL (≈ 30.6 µM); bioavailability [18]: 73%; bioavailability [19]: 75%; bioavailability [20]: 51%; half-life [10]: 2520 min; half-life [11]: 720 min; fraction unbound at 10 µM [12]: 0.13; fraction unbound at 10 µM [21]: 0.07; remaining at 2 h, 3 µM [22]: 5%; Drug excretion [23]: 36 %ID; Drug excretion [24]: 26 %ID; dose excreted [25]: < 1%; Drug excretion [26]: 76 %ID; Drug excretion [27]: 7 %ID; dose excreted at 48 h [28]: 0.8%; Activity [29]: 7.2%; Activity [30]: 2.8%; Activity [31]: 2.4%; Activity [32]: 4.1%; Activity [14]: 10.2% |
| CCn1nc2c(-c3ccc(Cl)cc3)c(-c3cnc(N(C)C)nc3)c(=O)n(Cc3ccc(C#N)cc3)n2c1=O | 7.11 | 4.3 | < 4.40 | < 4.40 | < 4.40 | – | – |
| COc1nn2c(=O)n(Cc3ccc(C(F)(F)F)nc3)nc2c(-c2ccncc2)c1-c1ccc(Cl)cc1 | 8.00 | 3.7 | – | – | – | 1020 min | minimal effective dose [33]: 3 mg/kg |
| CCn1nc2c(-c3ccc(Cl)cc3)c(-c3ccc(C#N)c(C)c3)c(=O)n(Cc3ccc(C(F)(F)F)nc3C)n2c1=O | 8.52 | 5 | – | – | – | – | CLH [16]: 0 nmol/min/mg |
| Cn1nc2c(-c3ccc(Cl)cc3)c(-c3ccncc3)c(=O)n(Cc3ccc(C#N)cc3)n2c1=O | 7.54 | 3 | – | – | – | 210 min | fraction unbound at 10 µM [12]: 0.05 |
| N#Cc1ccc(Cn2nc3c(-c4ccncc4)c(-c4ccc(Cl)cc4)c(=O)n(Cc4ccc(C#N)cc4)n3c2=O)cc1 | 8.38 | – | – | – | – | – | – |
| CCn1nc2c(-c3ccc(Cl)cc3)c(-c3ccncc3C)c(=O)n(Cc3ccc(C(F)(F)F)nc3C)n2c1=O | 8.08 | 4.2 | 4.49 | 5.30 | < 4.40 | – | – |
| O=c1n(Cc2ccc(C(F)(F)F)nc2)nc2c(-c3ccncc3)c(-c3ccc(Cl)cc3)cnn12 | 7.92 | 3.2 | – | – | – | 900 min | minimal effective dose [33]: 0.3 mg/kg; clearance [7]: 0.4 mL/min/kg |
